Results taken from US5130302A, “Boronated nucleoside, nucleotide and oligonucleotide compounds, compositions and methods for using same” (Boron Bilogicals, Inc., priority 1989, dated 1992).
In brackets after ≈: the same amount, converted by molar mass. Read-outs that look alike come from different tables or passages of the source.

Legend:
[1] = test system: Human glioma cell EH 118 MG; experiment: Cytotoxicity, human glioma cell EH 118 MG; type: cell-based; conditions: read-out: ED50 (cytotoxicity), Glioma
Experimental: 9. Human glioma cell EH 118 MG transformed stain of Rous sarcoma virus, J. Lutton et al., J. Biol. Chem. 254, 11181 (1979) (grown in DMEM-H+10% FCS).
(§1) The cytotoxic screens were conducted according to NIH protocols, see E. Huang et al., J. Pharm. Sci. 61, 108 (1972), with 10^4 cells, growth medium, antibiotics and drugs from 0.5 to 100 μg/ml final concentration. For the L1210, Hela-S, amd Tmolt, (i.e. the suspended cells), the incubations were conducted in sterile test tubes in a final volume of 1 ml for 72 hr at 37° C. in a CO2 incubator. The cells on the third day were still in log growth phase. The number of cells/ml are determined using trypan blue exclusion and a hemocytometer. See, e.g., R. Geran, supra. For solid tumors there is plated out in wells 1×10^4 cells with 1 ml of medium+antibiotics and the other components of growth. When the controls have converged (≈95%) then the density of the cells is estimated and the ED50 values calculated.

[2] = test system: L1210 lymphoid leukemia cells; experiment: Cytotoxicity, L1210 lymphoid leukemia cells; type: cell-based; conditions: Mus musculus, read-out: ED50 (cytotoxicity), L1210
Experimental: (§2) More specifically, the cytotoxic activity of the boron adducts of the present invention was tested on the following neoplastic cell lines:
1. L1210 lymphoid leukemia cells, R. Geran et al., Cancer Chemotherapy Reports 3, 7 (1972).(grown in RPMI+15% FBS+antibiotics).
as §1

[3] = test system: Tmolt acute lymphoblastic T cell leukemia; experiment: Cytotoxicity, Tmolt acute lymphoblastic T cell leukemia; type: cell-based; conditions: for IC50: T-cell, read-out: ED50 (cytotoxicity), Tmolt; for activity in T molt-3 screen: in words
Experimental: as §2
2. Tmolt^S acute lymphoblastic T cell leukemia, S. Schreiber and N. Ikemoto, Tett. Lett 29, 3211 (1988) (grown in RPMI - 1640+10% FBS).
as §1

[4] = test system: Hela-S; experiment: Cytotoxicity, Hela-S cervical carcinoma suspended; type: cell-based; conditions: Homo sapiens, read-out: ED50 (cytotoxicity), Hela-S
Experimental: 7. Hela-S, ATCC-CCL 2.2, cervical carcinoma suspended, S. Schreiber and N. Ikemoto, supra; T. Puck et al., J. Exp. Med. 103. 273 (1956) (grown in Joklik+5% FBS, Ham's F12 +5% FBS).
as §1

[5] = test system: P388; experiment: Cytotoxicity, P388; type: cell-based
Experimental: as §1

[6] = test system: KB epidermoid oral nesopharnyx; experiment: Cytotoxicity, KB epidermoid oral nasopharynx; type: cell-based; conditions: Homo sapiens, read-out: ED50 (cytotoxicity), KB
Experimental: 6. KB epidermoid oral nesopharnyx. R. Geran, supra: H. Eagle, Proc. Soc. Expt.
Biol. 89, 362 (1955)(grown in EMEM +5% calf serum).
as §1

[7] = test system: Lung bronchogenic MB-9812; experiment: Cytotoxicity, lung bronchogenic MB-9812; type: cell-based; conditions: read-out: ED50 (cytotoxicity), Lung Bronchogenic
Experimental: 4. Lung bronchogenic MB-9812, S. Aronson et al., Expt. Cell Res. 61, 1 (1970) (grown in EMEM+10% FBS+NEAA).
as §1

[8] = test system: SW480 human colorectal carcinoma; experiment: Cytotoxicity, colon adenocarcinoma SW480 human colorectal carcinoma; type: cell-based
Experimental: as §2
3. Colon adenocarcinoma SW480 human colorectal carcinoma. A. Leibovitz et al., Cancer Res. 36, 4562 (1976) (grown in L15+10% FBS).
as §1

[9] = test system: Serum triglyceride levels; experiment: Antihyperlipidemic activity, serum triglyceride; type: in vivo, male CF1 mice; conditions: mice; for Hypolipidemic: Triglyceride Inhibition, % inhibition: 8 mg/kg/day, intraperitoneal, bled on day 16
Experimental: (§3) Compounds to be tested were suspended in 1% aqueous carboxymethylcellulose,homogenized and administered to male CF1 mice (25 g) intraperitoneally for 16d. On days 9 and 16, blood was obtained by tail vein bleeding, and the serum was separated by centrifugation for three minutes. The serum cholesterol levels were determined by a modification of the Liebermann--Burchard reaction in accordance with known techniques. See A. Ness, et al., Clin. Chim. Acta 10, 229 (1964). Serum triglyceride levels were determined with a commercial kit, the Fisher Hycel Triglyceride Test Kit, for a different group of animals bled on day 16.

[10] = test system: serum cholesterol levels; experiment: Antihyperlipidemic activity, serum cholesterol; type: in vivo, male CF1 mice; conditions: mice; for Hypolipidemic: Cholesterol Inhibition, % inhibition: 8 mg/kg/day, intraperitoneal for 16d
Experimental: as §3

[11] = test system: inflammatory response; experiment: Anti-inflammatory activity, carrageenan-injected hind foot; type: in vivo, CF1 male mice; conditions: 8 mg/kg/day; intraperitoneal, 3 hours and 30 minutes prior to carrageenan; mice
Experimental: CF1 male mice (~25 g) were administered test drugs at 5-40 mg/kg in 0.05% Tween 80--H2 O intraperitoneally 3 hours prior to and 30 minutes prior to the injection of 0.2 ml of 1% carrageenan in 0.9% saline into the plantar surface of the right hind foot. Saline was injected into the left hind foot, which serves as a base line. After 3 hours, both feet were excised at the tibiotarsal (ankle) joint according to standard procedures. See C. Winter et al., Proc. Soc. Expt. Biol Med. 544, 111 (1962); A. Roszkawski et al., J. Pharm. Exp. Ther. 179, 114 (1971). Control mice afforded a 78±3 mg increase in paw weight.

[12] = test system: Human Osteosarcoma TE418; experiment: Cytotoxicity, human osteosarcoma TE418; type: cell-based
Experimental: 5. Human Osteosarcoma TE418. H. Smith et al., Int. J. Cancer 17, 219 (1976) (grown in DMEM+10% FBS).
as §1

[13] = Stability in aqueous medium by HPLC; type: physicochemical; conditions: for stability in aqueous medium: in words
Experimental: By HPLC, compounds 3a, 3b, and 3d in aqueous medium (0.01 M TEAAc) are >94% stable over a period of 168 h. […], however, is >50% decomposed during this period.

[14] = Mus musculus, P388, read-out: ED50 (cytotoxicity), P388
[15] = Homo sapiens, SW480, read-out: ED50 (cytotoxicity), Adeno Carcinoma SW480
[16] = Mus musculus, P388; read-out: ED50 (cytotoxicity), P388
[17] = Osteosarcoma TE418, read-out: ED50 (cytotoxicity), Osteo sarcoma
[18] = Homo sapiens, SW480; read-out: ED50 (cytotoxicity), Adeno Carcinoma SW480

Row | Compound | IC50 [1] [µg/mL] | IC50 ([2]; L1210, 72 h) [µg/mL] | IC50 ([3]; 72 h) [µg/mL] | IC50 ([4]; HeLa, 72 h) [µg/mL] | IC50 [5, 14] [µg/mL] | IC50 [6] [µg/mL] | IC50 [7] [µg/mL] | IC50 [8, 15] [µg/mL] | IC50 ([1]; Glioma EH 118 MG) [µg/mL] | IC50 ([2]; L1210, 72 hr at 37° C.) [µg/mL] | Hypolipidemic: Triglyceride Inhibition, % inhibition [9] [%] | Hypolipidemic: Cholesterol Inhibition, % inhibition [10] [%] | IC50 ([3]; Tmolt, 72 hr at 37° C.) [µg/mL] | activity in T molt-3 screen [3] | Antiinflammatory Activity, % inhibition [11] [%] | IC50 ([4]; Hela-S, 72 hr at 37° C.) [µg/mL] | IC50 [5, 16] [µg/mL] | IC50 [12, 17] [µg/mL] | IC50 ([7]; Lung bronchogenic MB-9812) [µg/mL] | IC50 [8, 18] [µg/mL] | further results
1 | CC(C)[Si](OC[C@H]1O[C@@H](n2cnc3c(N)[n+]([BH2-]C#N)cnc32)C[C@@H]1O[Si](C(C)C)(C(C)C)C(C)C)(C(C)C)C(C)C [Compound 2c, 3', 5'-O-Bis(triisopropylsilyl)-2'-deoxyadenosine-N1-cyanoborane] | 4.99 (≈ 8.28 µM) | 6.86 (≈ 11.4 µM) | 1.88 (≈ 3.12 µM) | 3.42 (≈ 5.67 µM) | 7.46 (≈ 12.4 µM) | 5.79 (≈ 9.61 µM) | 5.58 (≈ 9.26 µM) | 2.87 (≈ 4.76 µM) | – | – | – | – | – | – | – | – | – | – | – | – | –
2 | N#C[BH2-][n+]1c(N)ccn([C@H]2C[C@H](O)[C@@H](CO)O2)c1=O [Compound 3d, 2' Deoxycytidine-N3-cyanoborane] | – | – | – | – | – | 5.46 (≈ 20.5 µM) | – | – | 4.39 (≈ 16.5 µM) | 2.61 (≈ 9.81 µM) | 23 | 38 | 1.13 (≈ 4.25 µM) | potent activity | 52 | 3.37 (≈ 12.7 µM) | 3.17 (≈ 11.9 µM) | 4.63 (≈ 17.4 µM) | 3.73 (≈ 14 µM) | 2.96 (≈ 11.1 µM) | remaining at 168 h ([13]; 0.01 M TEAAc, period of 168 h, HPLC, read-out: stable in aqueous medium): > 94%; stability in aqueous medium [13]: good stability; activity in human colorectal adenocarcinoma screen ([8]; in words): potent activity
3 | CC(C)[Si](OC[C@H]1O[C@@H](n2c[n+]([BH2-]C#N)c3c(=O)[nH]c(N)nc32)C[C@@H]1O[Si](C(C)C)(C(C)C)C(C)C)(C(C)C)C(C)C [Compound 2a, 3',5'-O-Bis(triisopropylsilyl)-2'-deoxyguanosine N7-cyanoborane] | 7.61 (≈ 12.3 µM) | 6.05 (≈ 9.78 µM) | 2.26 (≈ 3.65 µM) | 2.83 (≈ 4.57 µM) | 5.13 (≈ 8.29 µM) | 2.67 (≈ 4.31 µM) | 4.05 (≈ 6.55 µM) | 2.67 (≈ 4.31 µM) | – | – | – | – | – | – | – | – | – | – | – | – | IC50 ([12]; read-out: ED50 (cytotoxicity), Osteo sarcoma): 7.2 µg/mL (≈ 11.6 µM)
4 | CC(C)[Si](OC[C@H]1O[C@@H](n2ccc(N)[n+]([BH2-]C#N)c2=O)C[C@@H]1O[Si](C(C)C)(C(C)C)C(C)C)(C(C)C)C(C)C [Compound 2d, 3', 5'-O-Bis(triisopropylsilyl)-2'-deoxycytidine-N3-cyanoborane] | – | – | – | – | – | 5.72 (≈ 9.88 µM) | – | – | 6.77 (≈ 11.7 µM) | 4.78 (≈ 8.26 µM) | – | – | 3.36 (≈ 5.81 µM) | – | – | 2.94 (≈ 5.08 µM) | 7.26 (≈ 12.5 µM) | – | 6.6 (≈ 11.4 µM) | 2.73 (≈ 4.72 µM) | –
5 | N#C[BH2-][n+]1cnc2c(ncn2[C@H]2C[C@H](O)[C@@H](CO)O2)c1N [Compound 3c, 2'-Deoxyadenosine-N1-cyanoborane] | – | – | – | – | – | 3.12 (≈ 10.8 µM) | – | – | 6.88 (≈ 23.7 µM) | 3.68 (≈ 12.7 µM) | 37 | 44 | 1.36 (≈ 4.69 µM) | potent activity | 22 | 2.35 (≈ 8.1 µM) | 5.96 (≈ 20.5 µM) | 7.39 (≈ 25.5 µM) | 5.26 (≈ 18.1 µM) | 2.82 (≈ 9.72 µM) | stability in aqueous medium [13]: good stability; activity in human colorectal adenocarcinoma screen ([8]; in words): potent activity
6 | CCOC(=O)C(C)(C)Oc1ccc(Cl)cc1 [clofibrate, reference compound] | – | – | – | – | – | – | – | – | – | – | – | – | – | – | – | – | – | – | – | – | Hypolipidemic: Triglyceride Inhibition, % inhibition (Standard) ([9]; standard (clofibrate at 130 mg/kg/day)): 25%; Hypolipidemic: Cholesterol Inhibition, % inhibition (Standard) ([10]; 130 mg/kg/day): 13%
